Measured values from EP4273147A1, “SUBSTITUTED SPIROLACTAMS, SALTS THEREOF AND THEIR USE AS HERBICIDALLY ACTIVE SUBSTANCES” (Bayer Aktiengesellschaft, priority 2022, dated 2023).

Legend:
[1] = tested on: LOLRI; test: Herbicidal pre-emergence action (Table A3); assay type: in vivo, Lolium rigidum; conditions: visual grading after ca. 3 weeks
Method in brief: (§1)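 Weed seeds are sown into sandy loam in pots and covered with soil, with two species per pot, one monocot and one dicot.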

[2] = tested on: SETVI; test: Herbicidal pre-emergence action (Table A5); assay type: in vivo, Setaria viridis; conditions: visual grading after ca. 3 weeks
Method in brief: as §1

[3] = tested on: POAAN; test: Herbicidal pre-emergence action (Table A7); assay type: in vivo, Poa annua; conditions: visual grading after ca. 3 weeks
Method in brief: as §1

[4] = tested on: DIGSA; test: Herbicidal pre-emergence action (Table A12); assay type: in vivo, Digitaria sanguinalis; conditions: application rate 320 g/ha; visual grading after ca. 3 weeks
Method in brief: as §1

[5] = tested on: DIGSA; test: Herbicidal post-emergence action (Table B12); assay type: in vivo, Digitaria sanguinalis; conditions: application rate 1280 g/ha
Experimental: (§2) Seeds of mono- and dicotyledonous weed plants were placed in plastic pots in sandy loam soil (doubly sown with in each case one species of mono- or dicotyledonous weed plants per pot), covered with soil and cultivated in a greenhouse under controlled growth conditions. 2 to 3 weeks after sowing, the test plants were treated at the one-leaf stage. […] After the test plants had been kept in the greenhouse under optimum growth conditions for about 3 weeks, the activity of the preparations was rated visually in comparison to untreated controls. For example, 100% activity = the plants have died, 0% activity = like control plants.

[6] = tested on: STEME; test: Herbicidal pre-emergence action (Table A6); assay type: in vivo, Stellaria media; conditions: visual grading after ca. 3 weeks
Method in brief: as §1

[7] = tested on: KCHSC; test: Herbicidal pre-emergence action (Table A10); assay type: in vivo, Kochia scoparia; conditions: application rate 1280 g/ha; visual grading after ca. 3 weeks
Method in brief: as §1

[8] = tested on: ECHCG; test: Herbicidal pre-emergence action (Table A2); assay type: in vivo, Echinochloa crus-galli; conditions: application rate 320 g/ha; visual grading after ca. 3 weeks
Method in brief: as §1

[9] = tested on: MATIN; test: Herbicidal pre-emergence action (Table A4); assay type: in vivo, Matricaria inodora; conditions: application rate 1280 g/ha; visual grading after ca. 3 weeks
Method in brief: as §1

[10] = tested on: AMARE; test: Herbicidal pre-emergence action (Table A8); assay type: in vivo, Amaranthus retroflexus; conditions: application rate 1280 g/ha; visual grading after ca. 3 weeks vs untreated controls (100% = plants have died off, 0% = as control plants)
Method in brief: as §1

[11] = tested on: VERPE; test: Herbicidal post-emergence action (Table B10); assay type: in vivo, Veronica persica; conditions: application rate 1280 g/ha
Method in brief: (§3)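 Weed seeds sown in sandy loam in pots (one mono- or dicot species per pot), grown in greenhouse; plants treated post-emergence at one-leaf stage, 2–3 weeks after sowing. After ~3 weeks, damage scored visually vs untreated controls (100% = plants dead, 0% = like controls).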

[12] = tested on: AMARE; test: Herbicidal post-emergence action (Table B11); assay type: in vivo, Amaranthus retroflexus; conditions: application rate 1280 g/ha
Method in brief: as §3

[13] = tested on: POAAN; test: Herbicidal post-emergence action (Table B7); assay type: in vivo, Poa annua; conditions: application rate 1280 g/ha
Method in brief: as §3

[14] = tested on: ABUTH; test: Herbicidal post-emergence action (Table B1); assay type: in vivo, Abutilon theophrasti; conditions: application rate 1280 g/ha; treated at one-leaf stage; rated visually after about 3 weeks vs untreated controls (100% = plants have died, 0% = like control plants)
Method in brief: as §3

[15] = tested on: ECHCG; test: Herbicidal post-emergence action (Table B3); assay type: in vivo, Echinochloa crus-galli; conditions: Echinochloa crus-galli, post-emergence, 504 h; application rate 1280 g/ha; rated visually after about 3 weeks; read-out: post-emergence activity against ECHCG
Method in brief: as §3

[16] = tested on: STEME; test: Herbicidal post-emergence action (Table B9); assay type: in vivo, Stellaria media; conditions: application rate 1280 g/ha
Experimental: as §2

[17] = tested on: SETVI; test: Herbicidal post-emergence action (Table B8); assay type: in vivo, Setaria viridis; conditions: application rate 1280 g/ha
Method in brief: as §3

O=C1N(Cc2ccccc2)CCC12CCCN(Cc1c(F)cccc1F)C2=O (racemic) [I-089]
pre-emergence activity against LOLRI ([1]; application rate 320 g/ha): 100% | pre-emergence activity against SETVI ([2]; application rate 320 g/ha): 100% | pre-emergence activity against POAAN ([3]; application rate 320 g/ha): 100% | pre-emergence activity against DIGSA [4]: 90% | post-emergence activity against DIGSA [5]: 90% | pre-emergence activity against STEME ([6]; application rate 320 g/ha): 90% | pre-emergence activity against KCHSC [7]: 90% | pre-emergence activity against ECHCG [8]: 100% | pre-emergence activity against MATIN [9]: 90%

N#Cc1ccc(CN2CCCC3(CCCN(Cc4ccc(C#N)s4)C3=O)C2=O)s1 (single isomer, unassigned; (-)) [I-208, (-)-2,8-bis[(5-cyanothiophen-2-yl)methyl]-2,8-diazaspiro[5.5]undecane-1,7-dione]
pre-emergence activity against AMARE [10]: 100% | post-emergence activity against VERPE [11]: 90% | post-emergence activity against AMARE [12]: 90% | post-emergence activity against POAAN [13]: 90% | pest or weed control at 1280 g/ha ([1]; Lolium rigidum, pre-emergence, 504 h, application rate 1280 g/ha, read-out: pre-emergence activity against LOLRI): 90% | pre-emergence activity against SETVI ([2]; application rate 1280 g/ha): 90% | pest or weed control at 1280 g/ha ([3]; Poa annua, pre-emergence, 504 h, application rate 1280 g/ha, read-out: pre-emergence activity against POAAN): 100% | pre-emergence activity against STEME ([6]; application rate 1280 g/ha): 100% | pre-emergence activity against KCHSC [7]: 90% | post-emergence activity against ABUTH [14]: 90% | pest or weed control at 1280 g/ha [15]: 90% | post-emergence activity against STEME [16]: 90% | post-emergence activity against SETVI [17]: 90%
